For one assay, the system named is HepG2. The assay is described as follows: Cytotoxicity against human HepG2 cells after 48 hrs by MTT assay. The following applies: HepG2, 48 h. Format: functional, cell-based.
The subject of the next assay is L02. The assay can be described thus: Cytotoxicity against human HL7702 cells after 48 hrs by MTT assay. The following applies: L02, 48 h. Format: cell-based.
The next assay concerns HeLa. The assay can be described thus: Cytotoxicity against human HeLa cells after 48 hrs by MTT assay. Format: functional, cell-based.
Assay [1] in a line: Cytotoxicity against human H8 cells after 48 hrs by MTT assay. Format: cell-based.
The subject of the next assay is A549. The assay can be described thus: Cytotoxicity against human A549 cells after 48 hrs by MTT assay. Format: functional, cell-based. The settings on record: A549, 48 h.
The test system of a further assay is MRC5. The assay can be described thus: Cytotoxicity against human MRC5 cells after 48 hrs by MTT assay. Type of assay: cell-based. The settings on record: MRC5, 48 h.
The subject of the next assay is MCF7. The assay can be described thus: Cytotoxicity against human MCF7 cells after 48 hrs by MTT assay. Format: functional, cell-based. The settings on record: MCF7, 48 h.
Another assay concerns HMEC. The assay can be described thus: Cytotoxicity against HMEC after 48 hrs by MTT assay. The settings on record: Homo sapiens. Type of assay: cell-based.
Assay [2] is filed under the species Homo sapiens. The assay is described as follows: Inhibition of human topoisomerase-2 assessed as reduction in relaxation of kinetoplast DNA at 50 uM after 30 mins by ethidium bromide staining based agarose gel electrophoresis method.
The species named for assay [3] is Homo sapiens. The assay can be described thus: Inhibition of human topoisomerase-2 assessed as reduction in relaxation of kinetoplast DNA at 100 uM after 30 mins by ethidium bromide staining based agarose gel electrophoresis method.
Assay [4] is filed under the species Homo sapiens. The assay is described as follows: Inhibition of human topoisomerase-2 assessed as reduction in relaxation of kinetoplast DNA at 200 uM after 30 mins by ethidium bromide staining based agarose gel electrophoresis method.

The structures appear in SMILES notation. The source made the active and inactive calls. The rule behind the calls is not given here.

These results are taken from ChEMBL document CHEMBL4265964, “Discover the leading compound of 4β-S-(5-fluorobenzoxazole)-4-deoxy-4'-demethylepipodophyllotoxin with millimolar-potency toxicity by modifying the molecule structure of 4'-demethylepipodophyllotoxin” (Eur J Med Chem, 2018).

Consider `COc1cc([C@@H]2c3cc4c(cc3[C@@H](O)[C@H]3COC(=O)[C@H]23)OCO4)cc(OC)c1O` [4'-DEMETHYLEPIPODOPHYLLOTOXIN], for which the half-maximal inhibitory concentration (IC50) was determined as 26.1 µM in the assay on HepG2; 19.4 µM with L02; 27.8 µM in the assay on HeLa; 25.1 µM in assay [1]; 19 µM with A549; 21.3 µM in the assay on MRC5. Besides, the IC50 with MCF7 was 30.1 µM; in the assay with HMEC, 19.6 µM.
`COc1cc([C@@H]2c3cc4c(cc3[C@@H](c3nc5cc(C(F)(F)F)ccc5o3)[C@H]3COC(=O)[C@H]23)OCO4)cc(OC)c1O`: the IC50 in the assay with HepG2 was determined as 19.5 µM; in the assay with L02, 79.5 µM; with HeLa, 21.1 µM; in [1], 81 µM; with A549, 6.5 µM; with MRC5, 73.3 µM. Further, the concentration for half-maximal inhibition (IC50) was 34.5 µM in the assay with MCF7 and 72.8 µM in the assay with HMEC.
In the case of `COc1cc([C@@H]2c3cc4c(cc3[C@@H](c3nc5cc(OC(F)F)ccc5[nH]3)[C@H]3COC(=O)[C@H]23)OCO4)cc(OC)c1O`, the IC50 in the assay with HepG2 is 1.6 µM; in the assay with L02 it was 15.6 µM; in the assay on HeLa, 2.1 µM; in assay [1], 55.4 µM; in the assay on A549, 1.3 µM; with MRC5, 60.2 µM. Also, the IC50 with MCF7 was 2.4 µM; in the assay with HMEC, 51.4 µM.
Turning to `COc1cc([C@@H]2c3cc4c(cc3[C@@H](c3nc5c(F)c(F)c(F)c(F)c5s3)[C@H]3COC(=O)[C@H]23)OCO4)cc(OC)c1O`, the IC50 came to 14.5 µM in the assay on HepG2; 35.6 µM with L02; 2.3 µM in the assay with HeLa; 24.7 µM in assay [1]; 4.2 µM with A549; 41.4 µM in the assay with MRC5. For the same molecule, the IC50 in the assay with MCF7 was 5.5 µM; in the assay on HMEC it was 18.2 µM.
In the case of `COc1cc([C@@H]2c3cc4c(cc3[C@@H](c3nc5c(F)c(F)c(F)c(F)c5o3)[C@H]3COC(=O)[C@H]23)OCO4)cc(OC)c1O`, the half-inhibitory concentration (IC50) with HepG2 is 6.8 µM; in the assay on L02, 75.1 µM; in the assay with HeLa, 4.3 µM; in assay [1] it was 44.6 µM; in the assay on A549 it was 1.7 µM; in the assay with MRC5, 65.4 µM. The results for the IC50 in the assay on MCF7 and in the assay on HMEC were 3.5 µM and 75.5 µM, respectively.
For `COc1cc([C@@H]2c3cc4c(cc3[C@@H](c3nc5ccccc5s3)[C@H]3COC(=O)[C@H]23)OCO4)cc(OC)c1O`, the half-maximal inhibitory concentration (IC50) in the assay on HepG2 was found to be 6.7 µM; in the assay on L02, 22.7 µM; in the assay with HeLa it was 5.1 µM; in assay [1], 19.4 µM; with A549, 2.6 µM; in the assay on MRC5, 136 µM. For the same molecule, the IC50 with MCF7 came out at 11.5 µM; in the assay on HMEC, 28.6 µM.
In the case of `COc1cc([C@@H]2c3cc4c(cc3[C@@H](c3nc5cnccc5[nH]3)[C@H]3COC(=O)[C@H]23)OCO4)cc(OC)c1O`, the IC50 in the assay on HepG2 was greater than 100 µM; in the assay on L02, 59.8 µM; in the assay on HeLa it was greater than 100 µM; in assay [1], greater than 100 µM; in the assay with A549 it was greater than 100 µM; in the assay on MRC5, 63.4 µM. For the same molecule, the 50% inhibitory concentration (IC50) with MCF7 and in the assay with HMEC was greater than 100 µM each time.
In the case of `COc1cc([C@@H]2c3cc4c(cc3[C@@H](c3nc5cc(-c6ccccc6)ccc5s3)[C@H]3COC(=O)[C@H]23)OCO4)cc(OC)c1O`, the IC50 was 15.3 µM in the assay with HepG2; 18.6 µM with L02; 22.5 µM in the assay with HeLa; 47.6 µM in assay [1]; 5.7 µM in the assay on A549; 35.6 µM with MRC5. In addition, the IC50 in the assay on MCF7 was greater than 100 µM; with HMEC, 54.1 µM.
Turning to `COc1cc([C@@H]2c3cc4c(cc3[C@@H](c3nc5cnc(F)cc5[nH]3)[C@H]3COC(=O)[C@H]23)OCO4)cc(OC)c1O`, the inhibition result in the assay listed under Homo sapiens [2] and in the assay listed under Homo sapiens [3] was “inactive” in each case. Besides, the inhibition result in the assay listed under Homo sapiens [4] is “Active”. The half-maximal inhibitory concentration (IC50) in the assay on HepG2 was 22.5 µM; in the assay with L02, 29.8 µM; in the assay with HeLa, 11.9 µM; in assay [1], 34 µM; in the assay with A549, 24.5 µM; in the assay with MRC5, 41.3 µM. In addition, the values for the IC50 in the assay on MCF7 and with HMEC were 16.4 µM and greater than 100 µM, respectively.
`COc1cc([C@@H]2c3cc4c(cc3[C@@H](c3nc5cc(-c6ccccc6)ccc5o3)[C@H]3COC(=O)[C@H]23)OCO4)cc(OC)c1O`: the IC50 in the assay on HepG2 is greater than 100 µM; in the assay on L02, 21.7 µM; in the assay with HeLa it was greater than 100 µM; in assay [1] it was greater than 100 µM; in the assay with A549, greater than 100 µM; with MRC5, 76.3 µM. In addition, the half-maximal inhibitory concentration (IC50) is greater than 100 µM with MCF7 and 83.4 µM with HMEC.
Take `COc1cc([C@@H]2c3cc4c(cc3[C@@H](c3nc5ccccc5o3)[C@H]3COC(=O)[C@H]23)OCO4)cc(OC)c1O`: the half-maximal inhibitory concentration (IC50) in the assay with HepG2 was 19.4 µM; in the assay on L02, 17.7 µM; in the assay on HeLa, 16.4 µM; in [1], 20.4 µM; in the assay with A549, 25.6 µM; in the assay with MRC5 it was 32.3 µM. Besides, the figures for the IC50 in the assay on MCF7 and in the assay with HMEC were 21.4 µM and 15.6 µM, respectively.
For `COc1cc([C@@H]2c3cc4c(cc3[C@@H](c3nc5cc(C)ccc5s3)[C@H]3COC(=O)[C@H]23)OCO4)cc(OC)c1O`, the IC50 in the assay on HepG2 came to 8.2 µM; in the assay on L02, 24.2 µM; in the assay on HeLa, 5.1 µM; in [1] it was 27.5 µM; in the assay on A549 it was 3 µM; in the assay with MRC5, 47 µM. Besides, the figures for the 50% inhibitory concentration (IC50) in the assay with MCF7 and with HMEC were 5.4 µM and 15.6 µM, respectively.
`COc1cc([C@@H]2c3cc4c(cc3[C@@H](C3CC(S)NN3c3ccccc3F)[C@H]3COC(=O)[C@H]23)OCO4)cc(OC)c1O` (some centres undefined): the IC50 in the assay on HepG2 was 4.5 µM; in the assay with L02, 73 µM; with HeLa, 3.8 µM; in [1] it was 64.2 µM; in the assay on A549, 2.8 µM; with MRC5, 89.2 µM. For the same molecule, the IC50 with MCF7 was 1.5 µM; in the assay with HMEC, 58.2 µM.
`COc1cc([C@@H]2c3cc4c(cc3[C@@H](C3CC(c5ccncc5F)=CN3)[C@H]3COC(=O)[C@H]23)OCO4)cc(OC)c1O` (some centres undefined): the IC50 was 2.8 µM in the assay on HepG2; 19.8 µM in the assay with L02; 1.9 µM in the assay on HeLa; 19.2 µM in assay [1]; 1.4 µM in the assay on A549; 28.1 µM with MRC5. Besides, the IC50 with MCF7 was found to be 2.5 µM; in the assay with HMEC, 31.5 µM.
Take `COc1cc([C@@H]2c3cc4c(cc3[C@@H](c3nc5cc(C)ccc5o3)[C@H]3COC(=O)[C@H]23)OCO4)cc(OC)c1O`: the concentration for half-maximal inhibition (IC50) in the assay with HepG2 turned out to be 15.4 µM; in the assay with L02, 31.5 µM; with HeLa, 15.4 µM; in [1], 19.5 µM; with A549, 8 µM; with MRC5, 39 µM. Also, the 50% inhibitory concentration (IC50) with MCF7 was 14.4 µM; in the assay on HMEC, 12.6 µM.
Turning to `COc1cc([C@@H]2c3cc4c(cc3[C@@H](c3nc5cc(C(F)(F)F)ccc5s3)[C@H]3COC(=O)[C@H]23)OCO4)cc(OC)c1O`, the IC50 with HepG2 came out at 19.5 µM; with L02, 79.5 µM; with HeLa it was 21.1 µM; in [1], 81 µM; in the assay on A549 it was 6.5 µM; in the assay on MRC5, 73.3 µM. Also, the IC50 with MCF7 amounted to 34.5 µM; in the assay on HMEC, 42.3 µM.
On to `COc1cc([C@@H]2c3cc4c(cc3[C@@H](C3CC(c5ccncc5)=CN3)[C@H]3COC(=O)[C@H]23)OCO4)cc(OC)c1O` (some centres undefined), for which the half-inhibitory concentration (IC50) with HepG2 was 10 µM; in the assay with L02, 22.8 µM; in the assay with HeLa, 5.7 µM; in assay [1] it was 23.6 µM; in the assay on A549, 2 µM; in the assay with MRC5, 19 µM. Besides, the IC50 worked out at 4.3 µM in the assay with MCF7 and 38.1 µM in the assay with HMEC.
